In patent US20140329692A1, “METHOD FOR MEASURING DNA METHYLATION PROFILES” (ALBERT EINSTEIN COLLEGE OF MEDICINE OF YESHIVA UNIVERSITY, priority 2013, published 2014):

How the values were obtained:
global methylation = details: 5-Aza treatment; cited from earlier work
promoter region of Oct4 = assay: DNA methylation profile of the Oct4 promoter in 5-Aza-treated MEFs (bisulfite treatment, MDA amplification, nested PCR, Sanger sequencing); type: cell-based, mouse; details: 1 μM 5-Aza
Description: To definitively test the protocol, it was investigated whether it was capable of directly detecting epimutations, i.e., random changes in methylation status of single cytosines as a consequence of, for example, errors in de novo or maintenance methylation. While estimates of DNA methylation accuracy have been reported (13, 14), it has never been possible to directly determine such epimutations. To test if the method was able to detect single cell-specific epimutations, a time course experiment was performed in MEFs treated with 5-azacytidine (5-Aza). 5-Aza prevents methylation at CpG sites in newly synthesized DNA through covalent binding to Dnmt1 (15). […] Cultured cells were treated with 1 μM 5-Aza for 48 and 72 hours; ten single cells as well as 100-cell controls from each treatment group were subjected to lysis and bisulfite treatment followed by MDA amplification. Then the promoter region of Oct4 was tested and it was shown that a fully methylated pattern of CpG sites was present in the untreated single fibroblasts as well as in the 100-cell control (FIG. 1B, upper panel).
Isolation of single mouse embryonic fibroblasts: Mouse embryonic fibroblasts (MEFs) were isolated from embryonic day 13.5 embryos of C57BL/6 mice as described (31). All cultures were maintained in a 3% O2 and 5% CO2 atmosphere. The solutions of 5-aza-2′-deoxycytidine (5-Aza; Sigma, St. Louis, Mo., USA) in culturing medium were prepared at the time of application and applied every 24 hours for 72 hours. After trypsinization, single MEFs were collected under an inverted microscope by hand-held capillaries, deposited in PCR tubes and immediately frozen on dry ice and stored at […] until needed or immediately bisulfite-converted.
Bisulfite conversion: The bisulfite conversion and recovery of DNA were performed using the EZ DNA Methylation-Direct Kit (Zymo Research, Orange, Calif.). Bisulfite conversion was performed according to the instructions of the supplier with some modifications. First the bisulfite solution was added to the single or 100 cells together with 2 ng of salmon sperm DNA or tRNA. […]

SMILES: Nc1ncn([C@H]2C[C@H](O)[C@@H](CO)O2)c(=O)n1 [5-Aza, 5-aza-2′-deoxycytidine]
- global methylation (global methylation): significant decrease in global methylation
- demethylation of Oct4 promoter (promoter region of Oct4; 48 hours, 100-cell sample): < 50%
- methylation status of Oct4 promoter CpG sites (promoter region of Oct4; 48 hours, single fibroblasts): a mixed population was found comprising either methylated or unmethylated cytosines
- methylation status of Oct4 promoter CpG sites (promoter region of Oct4; 72 hours, both single fibroblasts and 100-cell control sample): fully demethylated
